Results from patent US12162913B2 (priority 2016, dated 2024).
Entries after “also recorded” stand apart in the source; their conditions may differ. Read-outs that look alike come from different tables or passages of the source.

Columns and labels:
[1] = target: R. microplus nAChRα6 (Rma6) homopentamers (Rhipicephalus microplus, UniProt A0A223PM23); experiment: Two-electrode voltage clamp on Xenopus oocytes expressing Rmα6 homopentamers; format: cell-based
Method: (§1) The plasmids containing the sequences of choice were linearized using BeuI (Spel) FastDigest (ThermoFisher) restriction enzyme for 30 min at 37°, and an aliquot run on an agarose gel to check for complete linearization. The plasmid DNA was phenol:chloroform purified and ethanol precipitated. The pellet was re-suspended in deionized water. Capped RNA was synthesized using mMessage mMachine T7 kit from 1 μg linearized plasmid DNA, the sample phenol:chloroform purified and isopropanol precipitated. The pellet was re-suspended in deionized water to a concentration of 500 ng/μl, analysed on an agarose gel for integrity and stored at −80° C. until further use.
(§2) Xenopus laevis oocytes were purchased as whole ovaries from the European Xenopus Resource Centre (University of Portsmouth), delivered in less than 24 h in Modified Barth's Saline (MBS) on wet ice. Upon arrival, the oocytes were treated with 2 mg/ml collagenase type I (Sigma-Aldrich) in calcium-free Barth's solution (NaCl 88 mM, Tris-HCl 15 mM, NaHCO32.4 mM, MgCl2 0.82 mM, KCl 1 mM, pH 7.5) for 30 min at room temperature. The separated oocytes were rinsed thoroughly in calcium-free Barth's solution, manually de-folliculated and injected using a Drummond microinjector with 25 ng/oocyte capped RNA. The oocytes were incubated at 18° C. in calcium-containing ([…]) Barth's solution supplemented with 4 μg/ml Kanamycin, 50 μg/ml Tetracycline, 100 U/ml Penicillin and 100 μg/ml Streptomycin. Two-electrode voltage clamp recordings were performed after 3-5 days using an OC-725C oocyte clamp (Warner instruments) with the membrane potential clamped at −60 mV. The oocytes were continuously perfused with frog Ringer's solution (NaCl 115 mM, KCl 2.5 mM, CaCl2) 1.8 mM and HEPES 10 mM) and the dilutions of ligands prepared in Ringer's saline applied using a VC-8 multi-valve perfusion system (Warner Instruments). Following ligand application, the current required to maintain the membrane potential at −60 mV was measured and used for subsequent data analysis.
(§3) Two-electrode voltage clamp electrophysiology data acquisition was done using LabScribe software (iWorks Systems) and the data transferred to GraphPad Prism (GraphPad Software) for traces analysis and dose-response curve fitting.

[2] = target: R. microplus nAChRα5 (Rmα5) homopentamers (Rhipicephalus microplus, UniProt A0A223PM17, I539V); format: cell-based
Method: as §1, §2, §3

Sequence of R. microplus nAChRα5 (Rmα5) homopentamers (A0A223PM17 entry or part of it I539V): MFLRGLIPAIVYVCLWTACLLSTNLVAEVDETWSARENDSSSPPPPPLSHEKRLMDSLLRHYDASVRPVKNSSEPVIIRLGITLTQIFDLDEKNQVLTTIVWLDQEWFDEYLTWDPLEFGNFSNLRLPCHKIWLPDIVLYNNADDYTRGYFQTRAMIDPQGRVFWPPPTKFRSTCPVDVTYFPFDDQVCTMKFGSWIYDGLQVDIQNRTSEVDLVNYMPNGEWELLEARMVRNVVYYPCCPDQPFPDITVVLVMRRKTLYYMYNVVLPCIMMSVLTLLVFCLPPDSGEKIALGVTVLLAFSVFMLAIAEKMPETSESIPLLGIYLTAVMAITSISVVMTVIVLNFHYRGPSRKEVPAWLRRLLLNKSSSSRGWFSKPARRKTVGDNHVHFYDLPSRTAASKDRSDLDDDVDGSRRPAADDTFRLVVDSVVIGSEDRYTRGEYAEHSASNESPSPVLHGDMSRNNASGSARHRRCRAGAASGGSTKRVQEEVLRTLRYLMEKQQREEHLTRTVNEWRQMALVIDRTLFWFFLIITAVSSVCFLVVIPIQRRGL
Sequence of R. microplus nAChRα6 (Rma6) homopentamers (A0A223PM23 entry or part of it): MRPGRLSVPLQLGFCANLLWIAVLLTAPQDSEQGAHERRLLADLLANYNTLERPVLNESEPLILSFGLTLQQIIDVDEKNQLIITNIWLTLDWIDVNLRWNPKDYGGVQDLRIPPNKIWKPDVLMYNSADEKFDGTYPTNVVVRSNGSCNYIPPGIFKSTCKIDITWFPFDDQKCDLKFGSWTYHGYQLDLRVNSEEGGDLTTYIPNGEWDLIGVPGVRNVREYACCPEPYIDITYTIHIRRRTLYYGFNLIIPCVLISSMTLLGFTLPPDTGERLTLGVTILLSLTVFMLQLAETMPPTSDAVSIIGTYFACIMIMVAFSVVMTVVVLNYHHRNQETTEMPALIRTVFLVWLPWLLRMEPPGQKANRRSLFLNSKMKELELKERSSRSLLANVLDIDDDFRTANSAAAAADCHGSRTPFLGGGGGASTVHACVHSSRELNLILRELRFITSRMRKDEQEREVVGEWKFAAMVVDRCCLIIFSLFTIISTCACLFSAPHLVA

Compound | EC50 ([1]; membrane potential clamped at −60 mV, dose-response curve, read-out: EC50 (activation of Rma6 receptor)) [nM] | action on Rma6 receptor [1] | character of responses on Rma6 [1] | action on Rma6 receptor ([1]; listed as imidacloprid) | EC50 of spinosad lower than ACh EC50 (fold) ([2]; Rmα5 receptor) | action on Rmα5 receptor ([2]; Xenopus oocytes) | character of responses on Rmα5 ([2]; Xenopus oocytes, ACh 300 μM, spinosad 30 μM representative traces) | time to response plateau ([2]; during application) | time to first signs of depolarization ([2]; during perfusion)
CC(=O)OCC[N+](C)(C)C [ACh, acetylcholine] | 1970 ± 1200 |  |  |  |  |  |  |  | 
O=[N+]([O-])NC1=NCCN1Cc1ccc(Cl)nc1 [Imidacloprid, imidacloprid] |  | partial agonist | small, non-desensitizing responses | induced responses |  |  |  |  | 
spinosad |  | does not directly activate; also recorded: type II allosteric modulator |  |  | over 10 times | higher efficacy than ACh; also recorded: agonist | large and also non-desensitizing | around 30 s | about 15 s
